Test results: article PMC6979384, “Characterization of the plant homeodomain (PHD) reader family for their histone tail interactions” (Epigenetics & Chromatin, 2020)
Values belong to the substance of their own block, whether it stands above or below them. Where no end group is shown, it is not given here.

Legend:
Experiment in all cases: Histone peptide microarray
Format in all cases: binding, human
Conditions in all cases: arrays performed twice, n of 4
AIRE (PP) = tested on: AIRE (PP)
In short: (§1)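 GST-PHD reader, 0.5 μM, probed on 293-peptide histone array (single/combinatorial PTMs); optimized array protocol; signal = mean ± SD, n = 4.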

BAZ2B = tested on: BAZ2B
In short: as §1

BPTF (PB) = tested on: BPTF (PB)
In short: as §1

CHD4 (PPCC) = tested on: CHD4 (PPCC)
In short: as §1

CHD5 (PCC) = tested on: CHD5 (PCC)
In short: as §1

CHD5 (PPCC) = tested on: CHD5 (PPCC)
In short: as §1

DIDO1 = tested on: DIDO1
In short: as §1

DPF2 (PPC2W2) = tested on: DPF2 (PPC2W2)
In short: as §1

ING1 = tested on: ING1
In short: as §1

ING2 = tested on: ING2
In short: as §1

ING3 = tested on: ING3
In short: as §1

ING4 = tested on: ING4
In short: as §1

ING5 = tested on: ING5
In short: as §1

KDM4C (TTP) = tested on: KDM4C (TTP)
In short: as §1

KDM5A (1) = tested on: KDM5A (1)
In short: as §1

KDM5A (3) = tested on: KDM5A (3)
In short: as §1

KDM5B (1) = tested on: KDM5B (1)
In short: as §1

KDM5B (3) = tested on: KDM5B (3)
In short: as §1

KDM7A = tested on: KDM7A
In short: as §1

MLL5 = tested on: MLL5
In short: as §1

MORC3 (CW) = tested on: MORC3 (CW)
In short: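 Purified PHD finger domains fused to GST are screened against 293 synthetic histone peptides bearing one or several post-translational modifications. The protein is used at 0.5 μM, and the signal from four replicate arrays is averaged, with standard deviation given.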

PHF13 = tested on: PHF13
In short: as §1

PHF21A = tested on: PHF21A
In short: as §1

PHF23 = tested on: PHF23
In short: as §1

PHF2 = tested on: PHF2
In short: as §1

PHF8 = tested on: PHF8
In short: as §1

PHRF1 (RP) = tested on: PHRF1 (RP)
In short: as §1

RAG2 = tested on: RAG2
In short: as §1

SP140L = tested on: SP140L
In short: as §1

TAF3 = tested on: TAF3
In short: as §1

TRIM66 (PB) = tested on: TRIM66 (PB)
In short: as §1

Substance: H3 (74-84) N-ac: H3 74-84 (Ac-IAQDFKTDLRF; UniProt P68431 75-85, looked up, fragment)
Array Heatmap signal, AIRE (PP) (AIRE (PP); GST-tagged AIRE (PP), histone peptide array): 0.4661 | Array Heatmap signal, BAZ2B (BAZ2B; GST-tagged BAZ2B, histone peptide array): 0.4698 | Array Heatmap signal, BPTF (PB) (BPTF (PB); GST-tagged BPTF (PB = PHD + Bromodomain), histone peptide array): 0.3549 | Array Heatmap signal, CHD4 (PPCC) (CHD4 (PPCC); GST-tagged CHD4 (PPCC = Dual PHD + Dual Chromodomain), histone peptide array): 0.602 | Array Heatmap signal, CHD5 (PCC) (CHD5 (PCC); GST-tagged CHD5 (PCC = PHD + Dual Chromodomain), histone peptide array): 0.8195 | Array Heatmap signal, CHD5 (PPCC) (CHD5 (PPCC); GST-tagged CHD5 (PPCC = Dual PHD + Dual Chromodomain), histone peptide array): 0.5613 | Array Heatmap signal, DIDO1 (DIDO1; GST-tagged DIDO1, histone peptide array): 0.7101 | Array Heatmap signal, DPF2 (PPC2W2) (DPF2 (PPC2W2); GST-tagged DPF2 (PPC2W2 = Dual PHD + C2W2-type Zn-finger), histone peptide array): 0.6686 | Array Heatmap signal, ING1 (ING1; GST-tagged ING1, histone peptide array): 0.5586 | Array Heatmap signal, ING2 (ING2; GST-tagged ING2, histone peptide array): 0.6419 | Array Heatmap signal, ING3 (ING3; GST-tagged ING3, histone peptide array): 0.5027 | Array Heatmap signal, ING4 (ING4; GST-tagged ING4, histone peptide array): 0.4711 | Array Heatmap signal, ING5 (ING5; GST-tagged ING5, histone peptide array): 0.3669 | Array Heatmap signal, KDM4C (TTP) (KDM4C (TTP); GST-tagged KDM4C (TTP = Tandem Tudor domain + PHD), histone peptide array): 0.495 | Array Heatmap signal, KDM5A (1) (KDM5A (1); GST-tagged KDM5A (1), histone peptide array): 0.4913 | Array Heatmap signal, KDM5A (3) (KDM5A (3); GST-tagged KDM5A (3), histone peptide array): 0.4833 | Array Heatmap signal, KDM5B (1) (KDM5B (1); GST-tagged KDM5B (1), histone peptide array): 0.7009 | Array Heatmap signal, KDM5B (3) (KDM5B (3); GST-tagged KDM5B (3), histone peptide array): 0.4839 | Array Heatmap signal, KDM7A (KDM7A; GST-tagged KDM7A, histone peptide array): 0.3521 | Array Heatmap signal, MLL5 (MLL5; GST-tagged MLL5, histone peptide array): 0.5353 | Array Heatmap signal, MORC3 (CW) (MORC3 (CW); GST-tagged MORC3 (CW = CW-type Zn-finger), histone peptide array): 0.4011 | Array Heatmap signal, PHF13 (PHF13; GST-tagged PHF13, histone peptide array): 0.618 | Array Heatmap signal, PHF21A (PHF21A; GST-tagged PHF21A, histone peptide array): 0.4735 | Array Heatmap signal, PHF23 (PHF23; GST-tagged PHF23, histone peptide array): 0.5407 | Array Heatmap signal, PHF2 (PHF2; GST-tagged PHF2, histone peptide array): 0.5329 | Array Heatmap signal, PHF8 (PHF8; GST-tagged PHF8, histone peptide array): 0.3664 | Array Heatmap signal, PHRF1 (RP) (PHRF1 (RP); GST-tagged PHRF1 (RP), histone peptide array): 0.4448 | Array Heatmap signal, RAG2 (RAG2; GST-tagged RAG2, histone peptide array): 0.2671 | Array Heatmap signal, SP140L (SP140L; GST-tagged SP140L, histone peptide array): 0.3545 | Array Heatmap signal, TAF3 (TAF3; GST-tagged TAF3, histone peptide array): 0.2845 | Array Heatmap signal, TRIM66 (PB) (TRIM66 (PB); GST-tagged TRIM66 (PB = PHD + Bromodomain), histone peptide array): 0.6043

Array Heatmap value (peptide array binding signal) (AIRE (PP); AIRE (PP), GST-tagged): 0.4948 | Array Heatmap value (peptide array binding signal) (BAZ2B; BAZ2B, GST-tagged): 0.543 | Array Heatmap value (peptide array binding signal) (BPTF (PB); BPTF (PB), GST-tagged): 0.4183 | Array Heatmap value (peptide array binding signal) (CHD4 (PPCC); CHD4 (PPCC), GST-tagged): 0.6385 | Array Heatmap value (peptide array binding signal) (CHD5 (PCC); CHD5 (PCC), GST-tagged): 0.8576 | Array Heatmap value (peptide array binding signal) (CHD5 (PPCC); CHD5 (PPCC), GST-tagged): 0.6548 | Array Heatmap value (peptide array binding signal) (DIDO1; DIDO1, GST-tagged): 0.8543 | Array Heatmap value (peptide array binding signal) (DPF2 (PPC2W2); DPF2 (PPC2W2), GST-tagged): 0.7706 | Array Heatmap value (peptide array binding signal) (ING1; ING1, GST-tagged): 0.6473 | Array Heatmap value (peptide array binding signal) (ING2; ING2, GST-tagged): 0.6422 | Array Heatmap value (peptide array binding signal) (ING3; ING3, GST-tagged): 0.5888 | Array Heatmap value (peptide array binding signal) (ING4; ING4, GST-tagged): 0.5451 | Array Heatmap value (peptide array binding signal) (ING5; ING5, GST-tagged): 0.4376 | Array Heatmap value (peptide array binding signal) (KDM4C (TTP); KDM4C (TTP), GST-tagged): 0.5708 | Array Heatmap value (peptide array binding signal) (KDM5A (1); KDM5A (1), GST-tagged): 0.5517 | Array Heatmap value (peptide array binding signal) (KDM5A (3); KDM5A (3), GST-tagged): 0.517 | Array Heatmap value (peptide array binding signal) (KDM5B (1); KDM5B (1), GST-tagged): 0.6332 | Array Heatmap value (peptide array binding signal) (KDM5B (3); KDM5B (3), GST-tagged): 0.5457 | Array Heatmap value (peptide array binding signal) (KDM7A; KDM7A, GST-tagged): 0.4052 | Array Heatmap value (peptide array binding signal) (MLL5; MLL5, GST-tagged): 0.6366 | Array Heatmap value (peptide array binding signal) (MORC3 (CW); MORC3 (CW), GST-tagged): 0.4265 | Array Heatmap value (peptide array binding signal) (PHF13; PHF13, GST-tagged): 0.7061 | Array Heatmap value (peptide array binding signal) (PHF21A; PHF21A, GST-tagged): 0.5236 | Array Heatmap value (peptide array binding signal) (PHF23; PHF23, GST-tagged): 0.6043 | Array Heatmap value (peptide array binding signal) (PHF2; PHF2, GST-tagged): 0.6413 | Array Heatmap value (peptide array binding signal) (PHF8; PHF8, GST-tagged): 0.4273 | Array Heatmap value (peptide array binding signal) (PHRF1 (RP); PHRF1 (RP), GST-tagged): 0.5306 | Array Heatmap value (peptide array binding signal) (RAG2; RAG2, GST-tagged): 0.3031 | Array Heatmap value (peptide array binding signal) (SP140L; SP140L, GST-tagged): 0.3991 | Array Heatmap value (peptide array binding signal) (TAF3; TAF3, GST-tagged): 0.3308 | Array Heatmap value (peptide array binding signal) (TRIM66 (PB); TRIM66 (PB), GST-tagged): 0.6456
Substance: H4K5me1: H4 1-23 [Peptide H4K5me1]
